Article PMC4957640 (Bioorganic & medicinal chemistry, 2016)

Key:
Assay type in all cases: biochemical
[1] = molecular target: cloned human μ opioid receptor (MOR) (Homo sapiens, UniProt P35372); assay: Inhibition of DAMGO-stimulated [35S]GTPγS binding
[2] = molecular target: cloned human δ opioid receptor (DOR) (Homo sapiens, UniProt P41143); assay: Inhibition of DPDPE-stimulated [35S]GTPγS binding
[3] = molecular target: cloned human κ opioid receptor (KOR) (Homo sapiens, UniProt P41145); assay: Inhibition of U69,593-stimulated [35S]GTPγS binding; settings: for δ/κ: ratio of Ke values, selectivity for KOR relative to DOR (fold)
cloned human κ opioid receptor (KOR), sequence (P41145 whole entry): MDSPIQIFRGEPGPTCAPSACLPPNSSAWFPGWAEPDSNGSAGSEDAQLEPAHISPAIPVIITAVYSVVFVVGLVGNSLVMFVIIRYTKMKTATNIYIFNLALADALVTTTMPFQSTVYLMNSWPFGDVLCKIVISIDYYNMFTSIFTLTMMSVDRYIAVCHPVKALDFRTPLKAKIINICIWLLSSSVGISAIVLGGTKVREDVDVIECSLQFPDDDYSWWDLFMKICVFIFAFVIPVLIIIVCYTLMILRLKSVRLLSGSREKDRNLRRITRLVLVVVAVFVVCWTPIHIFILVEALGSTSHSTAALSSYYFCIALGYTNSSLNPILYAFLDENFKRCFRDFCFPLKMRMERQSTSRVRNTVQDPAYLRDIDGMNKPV

cloned human δ opioid receptor (DOR), sequence (P41143 whole entry): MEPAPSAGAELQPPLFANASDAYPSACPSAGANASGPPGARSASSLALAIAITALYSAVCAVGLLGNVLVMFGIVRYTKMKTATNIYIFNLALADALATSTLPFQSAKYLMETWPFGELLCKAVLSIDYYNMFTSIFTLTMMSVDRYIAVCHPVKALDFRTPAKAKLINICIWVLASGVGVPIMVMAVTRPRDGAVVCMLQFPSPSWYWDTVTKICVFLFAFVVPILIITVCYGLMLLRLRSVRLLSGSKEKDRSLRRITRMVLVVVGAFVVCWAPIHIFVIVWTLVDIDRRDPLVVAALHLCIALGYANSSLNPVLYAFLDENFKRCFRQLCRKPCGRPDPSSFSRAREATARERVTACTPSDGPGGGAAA
cloned human μ opioid receptor (MOR), sequence (P35372 whole entry): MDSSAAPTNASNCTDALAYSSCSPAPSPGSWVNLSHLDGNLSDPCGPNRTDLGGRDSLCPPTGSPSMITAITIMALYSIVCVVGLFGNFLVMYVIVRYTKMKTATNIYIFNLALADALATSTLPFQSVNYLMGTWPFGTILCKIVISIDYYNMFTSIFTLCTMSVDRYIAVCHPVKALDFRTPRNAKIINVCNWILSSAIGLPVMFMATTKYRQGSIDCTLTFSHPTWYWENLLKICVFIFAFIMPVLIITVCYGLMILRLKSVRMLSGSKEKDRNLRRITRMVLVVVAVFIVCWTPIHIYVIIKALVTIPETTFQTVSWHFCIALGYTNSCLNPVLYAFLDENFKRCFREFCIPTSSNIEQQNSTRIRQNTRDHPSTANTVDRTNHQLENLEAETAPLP

Structure (SMILES)	Kb [1] [nM]	Kb [2] [nM]	Kb [3] [nM]	δ/κ [3]
CC(C)[C@@H](CN1CCC(c2ccccn2)CC1)NC(=O)[C@H]1Cc2ccc(O)cc2CN1 [Compound 2, (3R)-7-Hydroxy-N-{(1S)-2-methyl-1-[(4-pyridin-2-ylpiperidin-1-yl)methyl]propyl}-1,2,3,4-tetrahydroisoquinoline-3-carboxamide]	14.5 ± 2.6	590 ± 130	0.43 ± 0.12	1,372
CC(C)[C@@H](CN1CCC(c2cccnc2)CC1)NC(=O)[C@H]1Cc2ccc(O)cc2CN1 [Compound 3a, (3R)-7-Hydroxy-N-{(1S)-2-methyl-1-[(4-pyridin-3-ylpiperidin-1-yl)methyl]propyl}-1,2,3,4-tetrahydroisoquinoline-3-carboxamide]	45.4 ± 15	1140 ± 70	0.51 ± 0.08	2,235
CC(C)[C@@H](CN1CCC(C)(c2cccnc2)CC1)NC(=O)[C@H]1Cc2ccc(O)cc2CN1 [Compound 3b, (3R)-7-Hydroxy-N-{(1S)-2-methyl-1-[(4-methyl-4-pyridin-3-ylpiperidin-1-yl)methyl]propyl}-1,2,3,4-tetrahydroisoquinoline-3-carboxamide]	49.2 ± 14	> 3000	0.18 ± 0.01	>16,700
CC(C)[C@@H](CN1CCC(c2ccncc2)CC1)NC(=O)[C@H]1Cc2ccc(O)cc2CN1 [Compound 4a, (3R)-7-Hydroxy-N-{(1S)-2-methyl-1-[(4-pyridin-4-ylpiperidin-1-yl)methyl]propyl}-1,2,3,4-tetrahydroisoquinoline-3-carboxamide]	57.1 ± 15	690 ± 250	0.51 ± 0.14	1,353
CC(C)[C@@H](CN1CCC(C)(c2ccncc2)CC1)NC(=O)[C@H]1Cc2ccc(O)cc2CN1 [Compound 4b, (3R)-7-Hydroxy-N-{(1S)-2-methyl-1-[(4-methyl-4-pyridin-4-ylpiperidin-1-yl)methyl]propyl}-1,2,3,4-tetrahydroisoquinoline-3-carboxamide]	154 ± 56	2510	1.75 ± 0.65	1,434
